According to patent publication US7754880B2, “Uracils having a herbicidal activity” (Isagro Ricerca S.r.l., priority 2002, dated 2010):

Experiments:
Abutilon theofrasti [1] = experiment: Herbicidal activity in pre-emergence; format: in vivo; details: dosage of 15 g/ha, fifteen days after the treatment, damage vs non-treated plants
Method: (§1) Determination of the Herbicidal Activity and Phytotoxicity in Pre-Emergence The herbicidal activity of the compounds of the invention in pre-emergence was evaluated according to the following operative procedures. The vegetable species of interest (weeds or crops) were sown in pots with an upper diameter of 10 cm, a height of 10 cm and containing sandy soil. 10 pots were used for each vegetable species. Water was added to each pot in such a quantity as to germinate the seeds. The pots were divided into two groups, each containing 5 pots for each weed or crop. After one day from the sowing, the first set of pots was treated with a hydro-acetonic dispersion containing acetone at 10% in volume, the product under evaluation at the desired concentration and Tween 20 at 0.5%. The second set was treated with a hydro-acetonic solution only, containing acetone at 10% in volume and Tween 20 at 0.5%, and was used as comparison (blank). All pots were kept under observation in a conditioned environment under the following conditions: temperature: 24° C.; relative humidity: 60%; photoperiod: 16 ore; light intensity: 10000 lux. The pots were uniformly watered in order to ensure a sufficient humidity degree for a good development of the plants.

Amaranthus retroflexus [2] = experiment: Herbicidal activity in pre-emergence; format: in vivo; details: dosage of 15 g/ha, fifteen days after the treatment, damage vs non-treated plants
Method: as §1

Chenopodium album [3] = experiment: Herbicidal activity in pre-emergence; format: in vivo; details: dosage of 15 g/ha, fifteen days after the treatment, damage vs non-treated plants
Method: as §1

Convolvulus sepium [4] = experiment: Herbicidal activity in pre-emergence; format: in vivo; details: dosage of 15 g/ha, fifteen days after the treatment, damage vs non-treated plants
Method: as §1

Galium aparine [5] = experiment: Herbicidal activity in pre-emergence; format: in vivo; details: dosage of 15 g/ha, fifteen days after the treatment, damage vs non-treated plants
Method: as §1

Ipomea purpurea [6] = experiment: Herbicidal activity in pre-emergence; format: in vivo; details: dosage of 15 g/ha, fifteen days after the treatment, damage vs non-treated plants
Method: as §1

Portulaca oleracea [7] = experiment: Herbicidal activity in pre-emergence; format: in vivo; details: dosage of 15 g/ha, fifteen days after the treatment, damage vs non-treated plants
Method: as §1

Sida spinosa [8] = experiment: Herbicidal activity in pre-emergence; format: in vivo; details: dosage of 15 g/ha, fifteen days after the treatment, damage vs non-treated plants
Method: as §1

Solanum nigrum [9] = experiment: Herbicidal activity in pre-emergence; format: in vivo; details: dosage of 15 g/ha, fifteen days after the treatment, damage vs non-treated plants
Method: as §1

Abutilon theofrasti [10] = experiment: Herbicidal activity in post-emergence; format: in vivo; details: dosage of 15 g/ha, fifteen days after the treatment, damage vs non-treated plants
Method: (§2) Determination of the Herbicidal Activity and Phytotoxicity in Post-Emergence The herbicidal activity of the compounds of the invention in post-emergence was evaluated according to the following operative procedures. The vegetable species of interest (weeds or crops) were sown in pots with an upper diameter of 10 cm, a height of 10 cm and containing sandy soil. 10 pots were used for each vegetable species. Water was added to each pot in such a quantity as to germinate the seeds. The pots were divided into two groups, each containing 5 pots for each weed or crop. Fifteen days after sowing (ten, in the case of wheat), when the weeds and crops, according to the species, were 10-15 cm high, the first set of pots was treated with a hydro-acetonic dispersion containing acetone at 10% in volume, the product under evaluation at the desired concentration and Tween 20 at 0.5%. The second set was treated with a hydro-acetonic solution only, containing acetone at 10% in volume and Tween 20 at 0.5%, and was used as comparison (blank). All pots were kept under observation in a conditioned environment under the following conditions: temperature: 24° C.; relative humidity: 60%; photo-period: 16 ore; light intensity: 10000 lux. The pots were uniformly watered every other day so as to ensure a humidity degree sufficient for a good development of the plants.

Amaranthus retroflexus [11] = experiment: Herbicidal activity in post-emergence; format: in vivo; details: dosage of 15 g/ha, fifteen days after the treatment, damage vs non-treated plants
Method: as §2

Chenopodium album [12] = experiment: Herbicidal activity in post-emergence; format: in vivo; details: dosage of 15 g/ha, fifteen days after the treatment, damage vs non-treated plants
Method: as §2

Convolvulus sepium [13] = experiment: Herbicidal activity in post-emergence; format: in vivo; details: dosage of 15 g/ha, fifteen days after the treatment, damage vs non-treated plants
Method: as §2

Galium aparine [14] = experiment: Herbicidal activity in post-emergence; format: in vivo; details: dosage of 15 g/ha, fifteen days after the treatment, damage vs non-treated plants
Method: as §2

Ipomea purpurea [15] = experiment: Herbicidal activity in post-emergence; format: in vivo; details: dosage of 15 g/ha, fifteen days after the treatment, damage vs non-treated plants
Method: as §2

Portulaca oleracea [16] = experiment: Herbicidal activity in post-emergence; format: in vivo; details: dosage of 15 g/ha, fifteen days after the treatment, damage vs non-treated plants
Method: as §2

Sida spinosa [17] = experiment: Herbicidal activity in post-emergence; format: in vivo; details: dosage of 15 g/ha, fifteen days after the treatment, damage vs non-treated plants
Method: as §2

Solanum nigrum [18] = experiment: Herbicidal activity in post-emergence; format: in vivo; details: dosage of 15 g/ha, fifteen days after the treatment, damage vs non-treated plants
Method: as §2

COC(=O)/C=C(\COc1cc(-n2c(=O)cc(C(F)(F)F)n(C)c2=O)c(F)cc1Cl)OC [Compound No 2, methyl (2E)-4-{2-chloro-4-fluoro-5-[1,2,3,6-tetrahydro-3-methyl-2,6-dioxo-4-(trifluoromethyl)pyrimidin-1-yl]phenoxy}-3-methoxybut-2-enoate]
4 (4=71-90% damage): Herbicidal activity in post-emergence, PO (Portulaca oleracea [16])
5 (5=91% damage—death of the plant): Herbicidal activity in pre-emergence, AT (Abutilon theofrasti [1]) | Herbicidal activity in pre-emergence, AR (Amaranthus retroflexus [2]) | Herbicidal activity in pre-emergence, CA (Chenopodium album [3]) | Herbicidal activity in pre-emergence, CS (Convolvulus sepium [4]) | Herbicidal activity in pre-emergence, GA (Galium aparine [5]) | Herbicidal activity in pre-emergence, IP (Ipomea purpurea [6]) | Herbicidal activity in pre-emergence, PO (Portulaca oleracea [7]) | Herbicidal activity in pre-emergence, SS (Sida spinosa [8]) | Herbicidal activity in pre-emergence, SN (Solanum nigrum [9]) | Herbicidal activity in post-emergence, AT (Abutilon theofrasti [10]) | Herbicidal activity in post-emergence, AR (Amaranthus retroflexus [11]) | Herbicidal activity in post-emergence, CA (Chenopodium album [12]) | Herbicidal activity in post-emergence, CS (Convolvulus sepium [13]) | Herbicidal activity in post-emergence, GA (Galium aparine [14]) | Herbicidal activity in post-emergence, IP (Ipomea purpurea [15]) | Herbicidal activity in post-emergence, SS (Sida spinosa [17]) | Herbicidal activity in post-emergence, SN (Solanum nigrum [18])

Cn1c(C(F)(F)F)cc(=O)n(-c2cc(OCc3nnc(C(C)(C)C)o3)c(Cl)cc2F)c1=O [Compound No 6, 3-{5-[(5-tert-butyl-1,3,4-oxadiazol-2-yl)methoxy]-4-chloro-2-fluorophenyl}-1-methyl-6-(trifluoromethyl)-2,4(1H,3H)-pyrimidinedione]
3 (3=51-70% damage): Herbicidal activity in post-emergence, AR (Amaranthus retroflexus [11])
5 (5=91% damage—death of the plant): Herbicidal activity in pre-emergence, AT (Abutilon theofrasti [1]) | Herbicidal activity in pre-emergence, CA (Chenopodium album [3]) | Herbicidal activity in pre-emergence, GA (Galium aparine [5]) | Herbicidal activity in pre-emergence, PO (Portulaca oleracea [7]) | Herbicidal activity in pre-emergence, SS (Sida spinosa [8]) | Herbicidal activity in pre-emergence, SN (Solanum nigrum [9]) | Herbicidal activity in post-emergence, AT (Abutilon theofrasti [10]) | Herbicidal activity in post-emergence, IP (Ipomea purpurea [15]) | Herbicidal activity in post-emergence, SN (Solanum nigrum [18])
4 (4=71-90% damage): Herbicidal activity in pre-emergence, AR (Amaranthus retroflexus [2]) | Herbicidal activity in pre-emergence, IP (Ipomea purpurea [6]) | Herbicidal activity in post-emergence, CA (Chenopodium album [12]) | Herbicidal activity in post-emergence, PO (Portulaca oleracea [16]) | Herbicidal activity in post-emergence, SS (Sida spinosa [17])

Cn1nnc(-c2cc(-n3c(=O)cc(C(F)(F)F)n(C)c3=O)ccc2Cl)n1 [Compound No 13, 3-[4-chloro-3-(2-methyl-2H-tetrazol-5-yl)phenyl]-1-methyl-6-(trifluoromethyl)-2,4(1H,3H)-pyrimidinedione]
192 °C: melting point
5 (5=91% damage—death of the plant): Herbicidal activity in pre-emergence, AT (Abutilon theofrasti [1]) | Herbicidal activity in pre-emergence, AR (Amaranthus retroflexus [2]) | Herbicidal activity in pre-emergence, CA (Chenopodium album [3]) | Herbicidal activity in pre-emergence, GA (Galium aparine [5]) | Herbicidal activity in pre-emergence, IP (Ipomea purpurea [6]) | Herbicidal activity in pre-emergence, PO (Portulaca oleracea [7]) | Herbicidal activity in pre-emergence, SS (Sida spinosa [8]) | Herbicidal activity in pre-emergence, SN (Solanum nigrum [9]) | Herbicidal activity in post-emergence, AT (Abutilon theofrasti [10]) | Herbicidal activity in post-emergence, AR (Amaranthus retroflexus [11]) | Herbicidal activity in post-emergence, CA (Chenopodium album [12]) | Herbicidal activity in post-emergence, IP (Ipomea purpurea [15]) | Herbicidal activity in post-emergence, PO (Portulaca oleracea [16]) | Herbicidal activity in post-emergence, SS (Sida spinosa [17]) | Herbicidal activity in post-emergence, SN (Solanum nigrum [18])

CN(C)C(=O)Cn1nnc(-c2cc(-n3c(=O)cc(C(F)(F)F)n(C)c3=O)ccc2Cl)n1 [Compound No 125, 2-(5-{2-chloro-5-[1,2,3,6-tetrahydro-3-methyl-2,6-dioxo-4-(trifluoromethyl)pyrimidin-1-yl]phenyl}-2H-tetrazol-2-yl)-N,N-dimethylacetamide]
208 °C: melting point

Cn1c(C(F)(F)F)cc(=O)n(-c2ccc(Cl)c(-c3nnn(CC(N)=O)n3)c2)c1=O [Compound No 126, 2-(5-{2-chloro-5-[1,2,3,6-tetrahydro-3-methyl-2,6-dioxo-4-(trifluoromethyl)pyrimidin-1-yl]phenyl}-2H-tetrazol-2-yl)acetamide]
200 °C: melting point

CC(C)Cc1csc(-c2cc(-n3c(=O)cc(C(F)(F)F)n(C)c3=O)c(Cl)cc2Cl)n1 [Compound No 129, 3-[2,4-dichloro-5-(4-isobutyl-1,3-thiazol-2-yl)phenyl]-1-methyl-6-(trifluoromethyl) 2,4(1H,3H)-pyrimidinedione]
167 °C: melting point

CCOC(=O)c1sc(-c2cc(-n3c(=O)cc(C(F)(F)F)n(C)c3=O)ccc2Cl)nc1C [Compound No 131, ethyl 2-{2-chloro-5-[1,2,3,6-tetrahydro-3-methyl-2,6-dioxo-4-(trifluoromethyl)pyrimidin-1-yl]phenyl}-4-methyl-1,3-thiazole-5-carboxylate]
200 °C: melting point

Cn1c(C(F)(F)F)cc(=O)n(-c2cc(OCc3cc(C(C)(C)C)no3)c(Cl)cc2F)c1=O [Compound No 132, 3-{5-[(3-tert-butylisoxazol-5-yl)methoxy]-4-chloro-2-fluorophenyl}-1-methyl-6-(trifluoromethyl)-2,4(1H,3H)-pyrimidinedione]
142 °C: melting point

CC(C)c1cc(COc2cc(-n3c(=O)cc(C(F)(F)F)n(C)c3=O)c(F)cc2Cl)on1 [Compound No 133, 3-{4-chloro-2-fluoro-5-[(3-isopropylisoxazol-5-yl)methoxy]phenyl}-1-methyl-6-(trifluoromethyl)-2,4(1H,3H)-pyrimidinedione]
128 °C: melting point

CC(C)n1nnc(-c2cc(-n3c(=O)cc(C(F)(F)F)n(C)c3=O)ccc2Cl)n1 [Compound No 134, 3-[4-chloro-3-(2-isopropyl-2H-tetrazol-5-yl)phenyl]-1-methyl-6-(trifluoromethyl)-2,4(1H,3H)-pyrimidinedione]
147 °C: melting point

CCOC(=O)c1csc(-c2cc(-n3c(=O)cc(C(F)(F)F)n(C)c3=O)ccc2Cl)n1 [Compound No 156, ethyl 2-{2-chloro-5-[1,2,3,6-tetrahydro-3-methyl-2,6-dioxo-4-(trifluoromethyl)pyrimidin-1-yl]phenyl}-1,3-thiazole-4-carboxylate]
197 °C: melting point

CCCCn1nnc(-c2cc(-n3c(=O)cc(C(F)(F)F)n(C)c3=O)ccc2Cl)n1 [Compound No 157, 3-[3-(2-butyl-2H-tetrazol-5-yl)-4-chlorophenyl]-1-methyl-6-(trifluoromethyl)-2,4(1H,3H)-pyrimidinedione]
108 °C: melting point
